Laboratory results: the NIST ThermoML archive (doi:10.1021/je8009732)
± gives the expanded uncertainty stated by the source.

Legend:
[1] = refractive index (Na D-line) (dimensionless); settings: 298.15 K; 101.33 kPa; Liquid; Standard Abbe refractometry
[2] = 298.15 K, 101.3 kPa, Liquid; for mass density: Vibrating tube method
[3] = refractive index (Na D-line) (dimensionless); xn = mol fraction of the nth substance listed; settings: 298.15 K, 101.3 kPa, Liquid, Standard Abbe refractometry
[4] = xn = mol fraction of the nth substance listed; settings: 298.15 K, 101.3 kPa, Liquid; for mass density: Vibrating tube method

CCOS(=O)(=O)[O-].CC[n+]1cccc(C)c1 [1-ethyl-3-methylpyridinium ethylsulfate]
Settings	mass density [kg/m3]	refractive index	viscosity [mPa·s]
[1]	–	1.50666 ± 0.0012	–
[2]	1222.2 ± 8.1	–	161.4 ± 27

CCOS(=O)(=O)[O-].CC[n+]1cccc(C)c1 [1-ethyl-3-methylpyridinium ethylsulfate] + CCCO
Settings	mass density, [4] [kg/m3]	refractive index, [3]	viscosity, [4] [mPa·s]
x2 = 0	1222.2 ± 8.1	1.50666 ± 0.0012	161.4 ± 27
x2 = 0.0863	1208.44 ± 6.6	1.50223 ± 0.0011	126.4 ± 17
x2 = 0.1279	1201.22 ± 6	1.5002 ± 0.0011	112.4 ± 13
x2 = 0.2201	1183.56 ± 4.6	1.49524 ± 0.001	85.83 ± 7
x2 = 0.3243	1160.24 ± 3.4	1.48866 ± 0.00096	62.26 ± 2.6
x2 = 0.4177	1135.68 ± 2.4	1.48167 ± 0.0009	48.86 ± 2
x2 = 0.5126	1106.18 ± 1.6	1.47321 ± 0.00084	34.16 ± 1.3
x2 = 0.6093	1069.97 ± 1.1	1.4627 ± 0.00079	24.62 ± 0.93
x2 = 0.7176	1019.9 ± 0.71	1.44818 ± 0.00074	16.27 ± 0.61
x2 = 0.824	956.78 ± 0.57	1.4297 ± 0.0007	9.9 ± 0.38
x2 = 0.8834	913.04 ± 0.55	1.41684 ± 0.00069	7.027 ± 0.29
x2 = 0.9658	837.78 ± 0.53	1.39459 ± 0.00068	3.411 ± 0.15

CCCO [propan-1-ol]
Settings	mass density [kg/m3]	refractive index	viscosity [mPa·s]
[1]	–	1.3837 ± 0.00068	–
[2]	799.5 ± 0.53	–	2.017 ± 0.093

CCCO [propan-1-ol] + CCOS(=O)(=O)[O-].CC[n+]1cccc(C)c1
x1 = 1
Settings	mass density [kg/m3]	refractive index	viscosity [mPa·s]
[3]	–	1.3837 ± 0.00068	–
[4]	799.5 ± 0.53	–	2.017 ± 0.093
